Source: PubChem BioAssay AID608 (Sanford-Burnham Center for Chemical Genomics, 2007)
Active and inactive are the calls of the source. The rule behind the calls is not given here.

Target: Peptidyl-prolyl cis-trans isomerase FKBP1A (Homo sapiens) (UniProt P62942)
Experiment: FKBP12 binders, biophysical, NMR detection (AID 608)
Settings: NMR binding, purified FKBP12

Sequence of Peptidyl-prolyl cis-trans isomerase FKBP1A (Homo sapiens) (P62942 whole entry, looked up): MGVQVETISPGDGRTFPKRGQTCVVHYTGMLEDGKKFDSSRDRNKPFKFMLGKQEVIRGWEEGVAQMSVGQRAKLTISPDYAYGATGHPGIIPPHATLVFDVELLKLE

SMILES	Kd
O=C(C1CCCCC1)N1CCN(c2ccccc2F)CC1	> 4 mM (inactive)
O=c1oc2ccccc2cc1O	> 4 mM (inactive)
NC(=O)CSc1ccc(Br)cc1	> 4 mM (inactive)
CCOC(=O)c1ccc(NS(=O)(=O)N2CCOCC2)cc1	inactive
O=C1CCN(c2ccccc2)N1	> 4 mM (inactive)
COc1ccccc1C(=O)Nc1ccccn1	> 4 mM (inactive)
C1CCN2C[C@@H]3C[C@H](CN4CCCC[C@@H]34)[C@H]2C1	> 4 mM (inactive)
c1ccc(C2NCCc3[nH]cnc32)cc1 (stereo not given)	> 4 mM (inactive)
O=C1CCC(c2cccs2)=NN1	> 4 mM (inactive)
CN(C)S(=O)(=O)N1CCc2ccccc21	> 4 mM (inactive)
O=C(O)CC(O)c1nc2ccccc2[nH]1 (stereo not given)	> 4 mM (inactive)
NC(=O)Cc1nc(-c2ccc(F)cc2)cs1	> 4 mM (inactive)
CC[C@H]1CN2CCc3cc(OC)c(OC)cc3C2C[C@@H]1CC1NCCc2cc(OC)c(OC)cc21 (stereo not given in full)	> 4 mM (inactive)
Cn1c(=O)n(C)c2nc([N+](=O)[O-])c(Cl)cc21	> 4 mM (inactive)
COc1cccc(N2CCN(C(=O)c3cccnc3)CC2)c1	> 4 mM (inactive)
NC(=O)C1CCN(C(=O)Nc2ccccc2)CC1	> 4 mM (inactive)
O=c1[nH]cc(S(=O)(=O)N2CCc3ccccc32)c(=O)[nH]1	> 4 mM (inactive)
CSc1nc(C)cc(Oc2ccc(=O)n(C)n2)n1	> 4 mM (inactive)
COc1c(F)c(F)c(-c2csc(N)n2)c(F)c1F	> 4 mM (inactive)
CCOC(=O)CNC(=O)CSc1nnc(C)c(=O)[nH]1	> 4 mM (inactive)
COc1ccc(NC(=O)c2ccc[n+]([O-])c2)cc1	> 4 mM (inactive)
O=c1sc2ccccc2n1CN1CCOCC1	> 4 mM (inactive)
O=C1c2cccc3cc(S(=O)(=O)O)cc(c23)C(=O)N1O	> 4 mM (inactive)
CCNC(=O)CC1Nc2ccccc2NC1=O (stereo not given)	> 4 mM (inactive)

SMILES	Kd
O=C(O)CCn1c(=O)oc2ccccc21	> 4 mM (inactive)
O=C(O)c1ccnc2ccccc12	> 4 mM (inactive)
O=C1CC(=O)N(c2ccccc2)C(=O)N1	> 4 mM (inactive)
c1ccc(Cn2c(Nn3cnnc3)nc3ccccc32)cc1	> 4 mM (inactive)
Cc1nc(NC2=NCCC(=O)N2)nc2ccccc12	> 4 mM (inactive)
O=C(COc1ccccc1)N1CCc2ccccc2C1	> 4 mM (inactive)
N#Cc1cnn2c(C(F)(F)F)cc(C(F)(F)F)nc12	> 4 mM (inactive)
CC(=O)Nc1nnc(-c2ccco2)o1	> 4 mM (inactive)
CC1(C(=O)O)CC2C=CC1C2 (stereo not given)	> 4 mM (inactive)
N#CCSc1nc2ccccc2c(=O)n1-c1ccccc1	> 4 mM (inactive)
O=C(Nc1ccc(OCC(=O)N2CCOCC2)cc1)c1ccccc1Cl	> 4 mM (inactive)
NC(=O)c1ccc(NC(=O)c2ccco2)cc1	> 4 mM (inactive)
CCCSc1nnc2[nH]c(=O)cc(N)n12	> 4 mM (inactive)
CC(CCC(=O)O)[C@H]1CCC2C3CC[C@@H]4C[C@H](O)CC[C@]4(C)C3CC[C@@]21C (stereo not given in full)	> 4 mM (inactive)
O=C1CSC(=Nc2cc(Cl)ccc2Cl)N1	> 4 mM (inactive)
CC(C)(C)NC(=O)CN1C(=O)c2ccccc2S1(=O)=O	> 4 mM (inactive)
COc1cc2c(cc1OC)C1=C(C#N)CCC(=O)N1CC2	> 4 mM (inactive)
COC(=O)Cc1csc(N)n1	> 4 mM (inactive)
Cc1nn(CC(=O)Nc2ccccn2)c(=O)c2ccccc12	> 4 mM (inactive)
COc1ccc(Cc2nnc3c4cnn(C)c4ncn23)cc1	> 4 mM (inactive)
Cc1ccc(C(=O)Nc2ccncc2)o1	> 4 mM (inactive)
CC(=O)NC(=S)Nc1ccccc1C	> 4 mM (inactive)
CC1CN(C(=O)COc2ccccc2Cl)CC(C)O1 (stereo not given)	> 4 mM (inactive)
O=C(Nc1cnccn1)c1cccs1	> 4 mM (inactive)

SMILES	Kd
CC(=O)Nc1cc(C(F)(F)F)ccc1N1CCOCC1	> 4 mM (inactive)
CC(=O)O[C@H]1CC[C@@]2(C)C(=CCC3C2CC[C@@]2(C)C3CC[C@@H]2C(C)CCCC(C)C)C1 (stereo not given in full)	> 4 mM (inactive)
Nc1ccc(N2CCOCC2)c(Cl)c1	> 4 mM (inactive)
NC(=O)CSc1nc2[nH]ncc2c(=O)[nH]1	> 4 mM (inactive)
COC(=O)c1ccccc1N(C)S(C)(=O)=O	> 4 mM (inactive)
O=C(CSc1ccc2ccccc2c1)N1CCOCC1	0.18 mM
CCOc1ccc2nc(NS(C)(=O)=O)sc2c1	> 4 mM (inactive)
Cc1ccc(-c2ccc(OCC(=O)N3CCOCC3)cc2)cc1	inactive
COc1ccc(CC(=O)c2ccc(O)cc2O)cc1	> 4 mM (inactive)
O=C(Nc1ccc2c(c1)OCO2)c1ccc(=O)[nH]n1	> 4 mM (inactive)
CCc1noc(C)c1C(=O)Nc1ncc(C)s1	> 4 mM (inactive)
Nc1nc2ccc(S(N)(=O)=O)cc2s1	> 4 mM (inactive)
CC(=O)Nc1nnc(-c2ccncc2)s1	> 4 mM (inactive)
CC(=O)Oc1c2c(c3c(c1CC=C(C)C)O[C@]14C(=C[C@@H]5CC1C(C)(C)OC4(C/C=C(\C)C(=O)O)C5=O)C3=O)OC(C)(CCC=C(C)C)C=C2 (stereo not given in full)	> 4 mM (inactive)
Cc1nccc2c1[nH]c1ccccc12	> 4 mM (inactive)
Nc1cc(=O)[nH]c(SCC(=O)NC2CCCCC2)n1	> 4 mM (inactive)
Clc1ccccc1-c1nc(-c2cccnc2)no1	> 4 mM (inactive)
Cc1cc(Cl)ccc1OCC(=O)N1CCOCC1	inactive
CCN1C(=O)N(CO)C2C1N(C)C(=O)N2C (stereo not given)	> 4 mM (inactive)
COc1ccc2c(c1)OC/C(=C/c1ccc(O)c(O)c1)C2=O	> 4 mM (inactive)
Cc1cc2cc(N)ccc2[nH]1	> 4 mM (inactive)
O=C1NC(=O)C(c2ccccc2)C(=O)N1	> 4 mM (inactive)
O=C(O)c1ccc(CSc2ncn[nH]2)cc1	> 4 mM (inactive)
Cn1cnnc1Sc1ncnc(N)c1[N+](=O)[O-]	> 4 mM (inactive)

SMILES	Kd
O=C(Nc1ccc(O)cc1)N1CCOCC1	> 4 mM (inactive)
COc1ccc(/C=N/n2cn[nH]c2=S)cc1	> 4 mM (inactive)
COc1ccc(CCC(=O)N2CCOCC2)cc1	0.204 mM
O=c1nc(N2CCCCC2)nc2n1CCO2	> 4 mM (inactive)
S=C(Cc1cccnc1)N1CCOCC1	> 4 mM (inactive)
Cc1nnc(Nc2cccnc2)[nH]c1=O	> 4 mM (inactive)
Oc1ccc(-n2cncn2)cc1	> 4 mM (inactive)
Cc1cc(C)c(NC(=O)CN2CCC(O)CC2)c(C)c1	> 4 mM (inactive)
S=C(NC1=NCCS1)Nc1ccccc1	> 4 mM (inactive)
O=C1NC(=S)NC(=O)C1=Cc1cccs1	> 4 mM (inactive)
Cc1c(C(=O)OC(C)C)[nH]c2c1C(=O)CCC2	> 4 mM (inactive)
O=C(O)C1=C[C@@H](O)[C@@H](O)[C@H](O)C1	> 4 mM (inactive)
Cc1cc(C)n(S(=O)(=O)c2ccc(C(C)(C)C)cc2)n1	> 4 mM (inactive)
CCOC(=O)c1cnc2cc(C)nn2c1C	> 4 mM (inactive)
O=C1c2cccnc2C(=O)N1Cc1ccc2c(c1)OCO2	> 4 mM (inactive)
CC1Oc2ccccc2OC1C(=O)N1CCOCC1 (stereo not given)	> 4 mM (inactive)
CC(=O)CC1(O)C(=O)Nc2ccccc21 (stereo not given)	> 4 mM (inactive)
Nc1cccc(S(=O)(=O)N2CCOCC2)c1	> 4 mM (inactive)
Cc1onc(-c2ccccc2)c1CO	> 4 mM (inactive)
O=C(c1cc2ccccc2o1)N1CCCCCC1	0.184 mM
CC(C)(C)CC(=O)NC1=NCCS1	> 4 mM (inactive)
CCn1c(-c2c[nH]c3ccccc23)n[nH]c1=S	> 4 mM (inactive)
Nc1cc(N)nc(SCc2ccccc2)n1	> 4 mM (inactive)
C=C1CCC2[C@](C)(CO)[C@H](O)CC[C@@]2(C)[C@@H]1C/C=C1/C(=O)OC[C@H]1O (stereo not given in full)	> 4 mM (inactive)

SMILES	Kd
COc1c2ccccc2nc2occc12	> 4 mM (inactive)
CCNC(CC(=O)Nc1ccc(O)cc1)C(=O)O (stereo not given)	> 4 mM (inactive)
CSc1ccccc1NC(=O)c1ccncc1	> 4 mM (inactive)
O=C(O)C1Cc2c([nH]c3ccccc23)CN1 (stereo not given)	> 4 mM (inactive)
CC(C)CCCC1(C)C=Cc2c(O)c3c(c(CCC(C)C)c2O1)OC12C(CC4CC1C(C)(C)OC2(CCC(C)C(=O)O)C4O)C3=O (stereo not given)	> 4 mM (inactive)
NCCc1cnc[nH]1	> 4 mM (inactive)
c1ccc(CN2CCC3(CC2)Nc2ccccc2CO3)cc1	> 4 mM (inactive)
COc1cc(O)c2c(c1)C(=O)c1cc(C)cc(O)c1C2=O	> 4 mM (inactive)
O=C(NCc1n[nH]c(=O)c2ccccc12)C1CC1	> 4 mM (inactive)
O=Cc1c(N2CCOCC2)nc2ccccn2c1=O	> 4 mM (inactive)
FC(F)(F)c1cc(-c2ccco2)nc(N2CCOCC2)n1	> 4 mM (inactive)
Nc1nnc(-c2ccncc2)s1	> 4 mM (inactive)
Cc1cc(C)n2nc(Cc3ccccc3)nc2n1	> 4 mM (inactive)
NC(=O)NC(=O)Nc1ccc(Cl)cc1	> 4 mM (inactive)
O=C(NC1CCS(=O)(=O)C1)C1CCCCC1 (stereo not given)	> 4 mM (inactive)
O=C(O)C1NCCc2ccccc21 (stereo not given)	> 4 mM (inactive)
OCC(O)C(O)C(O)CO (stereo not given)	> 4 mM (inactive)
CNC(Cc1c[nH]c2ccccc12)C(=O)O (stereo not given)	> 4 mM (inactive)
CC(=O)Oc1ccc2c(c1OC(C)=O)OCC1(O)Cc3c(cc(OC(C)=O)c(OC(C)=O)c3OC(C)=O)C21 (stereo not given)	> 4 mM (inactive)
O=c1cccc2n1C[C@H]1CNCC2C1	> 4 mM (inactive)
Cc1ccc(C(=O)N2CCC(C(N)=O)CC2)c(Cl)c1	> 4 mM (inactive)
Cc1oc(-c2ccccc2)nc1CC(=O)O	> 4 mM (inactive)
Cc1cc(C(=O)c2c(C)nn(C)c2Cl)n(C)n1	> 4 mM (inactive)
C=CC1=C(C)/C(=C/c2[nH]c(Cc3[nH]c(/C=C4\NC(=O)C(C)=C4C=C)c(C)c3CCC(=O)O)c(CCC(=O)O)c2C)NC1=O	> 4 mM (inactive)
